19 molecules from US10745361B2, “Piperazine derivatives having multimodal activity against pain” (ESTEVE PHARMACEUTICALS, S.A., priority 2013, dated 2020) can be followed below.

The subject of the assay is human σ1 receptor and human μ-opioid receptor. The assay can be described thus: Human σ1 receptor radioligand assay and human μ-opioid receptor radioligand assay (μ and σ1 dual binding). On the set-up: key to μ and σ1 dual binding: +: Both Ki-μ and Ki-σ1>=500 nM; ++: One K, <500 nM while the other K, is >=500 nM; +++: Both Ki-μ and Ki-σ1<500 nM; ++++: Both Ki-μ and Ki-σ1<100 nM. Particulars: one class for both Ki: σ1 ([3H](+)-pentazocine, transfected HEK-293 membranes) and μ-opioid ([3H]-DAMGO, transfected CHO-K1 membranes). The procedure: Human σ1 Receptor Radioligand Assay
To investigate binding properties of σ1 receptor ligands to human σ1 receptor, transfected HEK-293 membranes and [^3H](+)-pentazocine (Perkin Elmer, NET-1056), as the radioligand, were used. The assay was carried out with 7 μg of membrane suspension, 5 nM of [^3H](+)-pentazocine in either absence or presence of either buffer or 10 μM Haloperidol for total and non-specific binding, respectively. Binding buffer contained Tris-HCl 50 mM at pH 8. Plates were incubated at 37° C. for 120 minutes. After the incubation period, the reaction mix was then transferred to MultiScreen HTS, FC plates (Millipore), filtered and plates were washed 3 times with ice-cold 10 mM Tris-HCL (pH7.4). Filters were dried and counted at approximately 40% efficiency in a MicroBeta scintillation counter (Perkin-Elmer) using EcoScint liquid scintillation cocktail
Human μ-Opioid Receptor Radioligand Assay
To investigate binding properties of p-opioid receptor ligands to human p-opioid receptor, transfected CHO-K1 cell membranes and [^3H]-DAMGO (Perkin Elmer, ES-542-C), as the radioligand, were used. The assay was carried out with 20 μg of membrane suspension, 1 nM of [^3H]-DAMGO in either absence or presence of either buffer or 10 μM Naloxone for total and non-specific binding, respectively. Binding buffer contained Tris-HCl 50 mM, MgCl2 5 mM at pH 7.4. Plates were incubated at 27° C. for 60 minutes. After the incubation period, the reaction mix was then transferred to MultiScreen HTS, FC plates (Millipore), filtered and plates were washed 3 times with ice-cold 10 mM Tris-HCL (pH 7.4). Filters were dried and counted at approximately 40% efficiency in a MicroBeta scintillation counter (Perkin-Elmer) using
EcoScint liquid scintillation cocktail.
The following scale as been adopted for representing the binding to the σ1 receptor and the μ-opiod receptor expressed as Ki: • + Both Ki-μ and Ki-σ1>=500 nM • ++ One K, <500 nM while the other K, is >=500 nM • +++ Both Ki-μ and Ki-σ1<500 nM • ++++ Both Ki-μ and Ki-σ1<100 nM
Consider `CC(C)S(=O)(=O)Nc1cccc(N2CC3CN(Cc4cn(Cc5ccccn5)nn4)CC3C2)n1` (stereo not shown) [Example 55, N-(6-(5-((1-(pyridin-2-ylmethyl)-1H-1,2,3-triazol-4-yl)methyl)hexahydropyrrolo[3,4-c]pyrrol-2(1H)-yl)pyridin-2-yl)propane-2-sulfonamide], for which the “μ and σ1 dual binding” value is reported as “++”.

Take `COc1cncc(-n2cc(CN3CCN(c4cccc(NS(=O)(=O)C(C)C)n4)CC3)nn2)c1` [Example 56, N-(6-(4-((1-(5-methoxypyridin-3-yl)-1H-1,2,3-triazol-4-yl)methyl)piperazin-1-yl)pyridin-2-yl)propane-2-sulfonamide]: the “μ and σ1 dual binding” value is “++”. As for `CC(C)S(=O)(=O)Nc1cccc(N2CCCN(Cc3cn(-c4ccccc4)nn3)CC2)n1` [Example 57, N-(6-(4-((1-phenyl-1H-1,2,3-triazol-4-yl)methyl)-1,4-diazepan-1-yl)pyridin-2-yl)propane-2-sulfonamide], the Ki (commonly a dissociation constant, usually derived from enzyme kinetics or from competition with a known ligand) was under 100 nM. On to `CC(C)S(=O)(=O)Nc1cccc(N2CCN(Cc3cn(-c4ccc(Cl)cn4)nn3)CC2)n1` [Example 58, N-(6-(4-((1-(5-chloropyridin-2-yl)-1H-1,2,3-triazol-4-yl)methyl)piperazin-1-yl)pyridin-2-yl)propane-2-sulfonamide], for which the “μ and σ1 dual binding” value was “++”. Same read-out and setting: for `CC(C)S(=O)(=O)Nc1cccc(N2CCCN(Cc3cn(Cc4ccccn4)nn3)CC2)n1` [Example 59, N-(6-(4-((1-(pyridin-2-ylmethyl)-1H-1,2,3-triazol-4-yl)methyl)-1,4-diazepan-1-yl)pyridin-2-yl)propane-2-sulfonamide] the value was “++”. `CC(C)S(=O)(=O)Nc1cccc(N2CCCN(Cc3cn(-c4ccccc4F)nn3)CC2)n1` [Example 60, N-(6-(4-((1-(2-fluorophenyl)-1H-1,2,3-triazol-4-yl)methyl)-1,4-diazepan-1-yl)pyridin-2-yl)propane-2-sulfonamide]: the Ki is under 500 nM. For the molecule `CC(C)S(=O)(=O)Nc1cccc(N2CC3CN(Cc4cn(-c5ccccc5F)nn4)CC3C2)n1` (stereo not shown) [Example 61, N-(6-(5-((1-(2-fluorophenyl)-1H-1,2,3-triazol-4-yl)methyl)hexahydropyrrolo[3,4-c]pyrrol-2(1H)-yl)pyridin-2-yl)propane-2-sulfonamide], the “μ and σ1 dual binding” value is “++”. Molecule `CC(C)S(=O)(=O)Nc1cccc(N2CCN(Cc3cn(-c4ccccn4)cn3)CC2)n1` [Example 62, N-(6-(4-((1-(pyridin-2-yl)-1H-imidazol-4-yl)methyl)piperazin-1-yl)pyridin-2-yl)propane-2-sulfonamide] had a Ki of under 500 nM. On the same count and under the same terms, the same measure for `Nc1cccc(N2CCN(Cc3cn(-c4ccccc4)nn3)CC2)n1` [Example 63, 6-(4-((1-phenyl-1H-1,2,3-triazol-4-yl)methyl)piperazin-1-yl)pyridin-2-amine]: at least 500 nM.

Turning to `O=S(=O)(Nc1cccc(N2CCN(Cc3cn(-c4ncccc4F)nn3)CC2)n1)C1CC1` [Example 64, N-(6-(4-((1-(3-fluoropyridin-2-yl)-1H-1,2,3-triazol-4-yl)methyl)piperazin-1-yl)pyridin-2-yl)cyclopropanesulfonamide], the “μ and σ1 dual binding” value is given as “++”. Still for that read-out and setting: the same measure for `O=S(=O)(Nc1cccc(N2CCN(Cc3cn(-c4cc(F)ccc4F)nn3)CC2)n1)C1CC1` [Example 65, N-(6-(4-((1-(2,5-difluorophenyl)-1H-1,2,3-triazol-4-yl)methyl)piperazin-1-yl)pyridin-2-yl)cyclopropanesulfonamide]: “++”; for `Cc1ccc(F)c(-n2cc(CN3CCN(c4cccc(NS(=O)(=O)C5CC5)n4)CC3)nn2)c1` [Example 66, N-(6-(4-((1-(2-fluoro-5-methylphenyl)-1H-1,2,3-triazol-4-yl)methyl)piperazin-1-yl)pyridin-2-yl)cyclopropanesulfonamide]: “++”; for `O=S(=O)(Nc1cccc(N2CCN(Cc3cn(-c4ccc(C(F)(F)F)cn4)nn3)CC2)n1)C1CC1` [Example 67, N-(6-(4-((1-(5-(trifluoromethyl)pyridin-2-yl)-1H-1,2,3-triazol-4-yl)methyl)piperazin-1-yl)pyridin-2-yl)cyclopropanesulfonamide]: “++”. Still for that read-out and setting: the same measure for `O=S(=O)(Nc1cccc(N2CCN(Cc3cn(-c4ccc(C(F)(F)F)cc4)nn3)CC2)n1)C1CC1` [Example 68, N-(6-(4-((1-(4-(trifluoromethyl)phenyl)-1H-1,2,3-triazol-4-yl)methyl)piperazin-1-yl)pyridin-2-yl)cyclopropanesulfonamide]: “++”; for `O=S(=O)(Nc1cccc(N2CCN(Cc3cn(-c4ccc(C(F)(F)F)cc4F)nn3)CC2)n1)C1CC1` [Example 69, N-(6-(4-((1-(2-fluoro-4-(trifluoromethyl)phenyl)-1H-1,2,3-triazol-4-yl)methyl)piperazin-1-yl)pyridin-2-yl)cyclopropanesulfonamide]: “++”. Molecule `O=S(=O)(Nc1cccc(N2CCN(Cc3cn(-c4ccccc4)cn3)CC2)n1)C1CC1` [Example 70, N-(6-(4-((1-phenyl-1H-imidazol-4-yl)methyl)piperazin-1-yl)pyridin-2-yl)cyclopropanesulfonamide] gave a Ki of under 500 nM. Still for that read-out and setting: for `O=S(=O)(Nc1cccc(N2CCN(Cc3cn(-c4ccccc4F)cn3)CC2)n1)C1CC1` [Example 71, N-(6-(4-((1-(2-fluorophenyl)-1H-imidazol-4-yl)methyl)piperazin-1-yl)pyridin-2-yl)cyclopropanesulfonamide] the value was under 500 nM. Regarding `Nc1cccc(N2CCN(Cc3cn(-c4ccccc4F)nn3)CC2)n1` [Example 72, 6-(4-((1-(2-fluorophenyl)-1H-1,2,3-triazol-4-yl)methyl)piperazin-1-yl)pyridin-2-amine], the “μ and σ1 dual binding” value is “++”.

`O=S(=O)(Nc1cccc(N2CCN(Cc3cn(-c4ccccn4)cn3)CC2)n1)C1CC1` [Example 73, N-(6-(4-((1-(pyridin-2-yl)-1H-imidazol-4-yl)methyl)piperazin-1-yl)pyridin-2-yl)cyclopropanesulfonamide] returned a Ki of under 500 nM.
